Source: patent publication US6433167B1, “Triazolo-1,4-diazepine compounds and medicinal composition containing the same” (Nikken Chemicals Co., Ltd., priority 1997, dated 2002)

Experiments:
[1] = test system: platelet activating factor (PAF)-induced aggregation of platelet rich plasma (PRP); experiment: PAF antagonistic action test (PAF-induced platelet aggregation in platelet rich plasma); type: cell-based, Japanese white rabbits; details: test compound final concentration 10^−7M; PAF final concentration 17 nM; rabbit PRP, 37° C.
Protocol: Japanese white rabbits (2.5 to 3.0 kg, Clean Experimental Animal Center) were used. Nine volumes of blood were taken with respect to one volume of 3.8% sodium citrate from the carotid under anesthesia by pentobarbitol. This was centrifuged at 1000 rpm and room temperature for 10 minutes. The top layer was used as the platelet rich plasma (PRP). The lower layer was further centrifuged at 3000 rpm and room temperature for 10 minutes to obtain the platelet poor plasma (PPP).
5 μl (final concentration 10^−7M) of the test compound was added to 90 μl of PRP. This was incubated at 37° C. for 3 minutes, then a platelet activating factor (PAF, final concentration 17 nM) was added to cause aggregation and the aggregation reaction was measured for 5 minutes using an aggrigometer (MC Medical, PAT-606).

[2] = molecular target: T1, TxA2 synthesis in human blood platelet microsomes (Homo sapiens, UniProt P24557); experiment: TxA2 synthesis inhibiting action test (TxB2 by EIA); type: biochemical; details: test compound final concentration 10^−7M, human blood platelet microsomes 50 μg protein/ml, prostaglandin H2 substrate
T1 construct: containing human blood platelet microsomes (50 μg protein/ml); from tissue; host or cells: human blood platelet microsomes
T1 sequence (P24557 1-533): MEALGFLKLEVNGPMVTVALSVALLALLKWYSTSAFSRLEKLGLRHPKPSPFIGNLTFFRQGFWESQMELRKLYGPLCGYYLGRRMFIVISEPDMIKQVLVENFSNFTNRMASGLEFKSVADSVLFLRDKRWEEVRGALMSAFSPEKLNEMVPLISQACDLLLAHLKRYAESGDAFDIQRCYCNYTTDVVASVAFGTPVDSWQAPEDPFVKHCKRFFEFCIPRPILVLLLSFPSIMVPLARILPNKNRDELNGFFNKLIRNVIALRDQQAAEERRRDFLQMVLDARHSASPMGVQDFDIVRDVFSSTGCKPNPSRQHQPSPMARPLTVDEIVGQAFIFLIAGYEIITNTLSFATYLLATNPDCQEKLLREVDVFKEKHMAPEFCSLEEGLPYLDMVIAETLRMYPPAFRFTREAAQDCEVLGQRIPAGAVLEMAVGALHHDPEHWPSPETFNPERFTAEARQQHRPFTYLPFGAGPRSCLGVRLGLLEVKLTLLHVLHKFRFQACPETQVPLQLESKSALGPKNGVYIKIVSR
Protocol: 1 ml of a buffer (20 MM Tris-HCl buffer, 1 mM EDTA, pH 7.5) containing human blood platelet microsomes (50 μg protein/ml) and the test compound (final concentration 10^−7M) was agitated, then incubated at 0° C. for 30 minutes. To this was added prostaglandin H2 (100 ng/2 μl). This was incubated at 23° C. for 3 minutes to cause a reaction. Next, 1M hydrochloric acid was added to make the solution acidic and stop the reaction, then this was neutralized by 1M Tris-Base and centrifuged at 3000 rpm for 20 minutes. The amount of the TxB2 in the supernatant was measured by the EIA method (Cayman Co. kit).
The test results are shown in Table II. a Further, as controls, UK-74,505 having a PAF antagonistic action and OKY-046 having a TxA2 synthesis inhibiting action were used.

rats or mice = experiment: Acute toxicity test; type: in vivo; details: administered intravenously, 10 mg/kg

| Compound | PAF antagonistic action Rate of suppression at 10^−7 M (%) [1] | inhibition at 0.1 µM ([2]; read-out: TxA2 synthesis inhibiting action Rate of suppression at 10^−7 M (%)) | TxA2 synthesis inhibiting action Rate of suppression at 10^−7 M (%) [2] | Deaths after intravenous administration (rats or mice) |
| --- | --- | --- | --- | --- |
| CCOC(=O)CCCCON=C(c1cccnc1)c1ccccc1C(=O)N1CCc2c(sc3c2C(c2ccccc2Cl)=NC(C)c2nnc(C)n2-3)C1 (mixture of isomers) [Compound 1, 6-(2-Chlorophenyl)-3-[2-[((E/Z)-4-ethoxycarbonylbutyloxyimino)(3-pyridyl)methylene]phenylcarbonyl]-8,11-dimethyl-2,3,4,5-tetrahydro-8H-pyrido[4′,3′:4,5]thieno[3,2-f][1,2,4]triazolo[4,3-a][1,4]diazepine] | 82.0% | 53% |  |  |
| CCOC(=O)CCCCON=C(c1ccc(CC(=O)N2CCc3c(sc4c3C(c3ccccc3Cl)=NC(C)c3nnc(C)n3-4)C2)cc1)c1cccnc1 (mixture of isomers) [Compound 4, 6-(2-Chlorophenyl)-3-[4-[((E/Z)-4-ethoxycarbonylbutyloxyimino)(3-pyridyl)methyl]phenylmethylcarbonyl]-8,11-dimethyl-2,3,4,5-tetrahydro-8H-pyrido[4′,3′:4,5]thieno[3,2-f](1,2,4]triazolo[4,3-a][1,4]diazepine] | 94.6% |  | 79.6% | no deaths were observed |
| CCOC(=O)CCCCON=C(c1cccnc1)c1cccc(CCCC(=O)N2CCc3c(sc4c3C(c3ccccc3Cl)=NC(C)c3nnc(C)n3-4)C2)c1 (mixture of isomers) [Compound 5, 6-(2-Chlorophenyl)-3-[3-[3-[((E/Z)-4-ethoxycarbonylbutyloxyimino)(3-pyridyl)methyl]phenyl]propylcarbonyl]-8,11-dimethyl-2,3,4,5-tetrahydro-8H-pyrido[4′,3′:4,5]thieno[3,2-f][1,2,4]triazolo[4,3-a][1,4]diazepine] | 95.5% |  | 40.3% |  |
| CCOC(=O)CCCCON=C(c1ccc(COCC(=O)N2CCc3c(sc4c3C(c3ccccc3Cl)=NC(C)c3nnc(C)n3-4)C2)cc1)c1cccnc1 (mixture of isomers) [Compound 6, 6-(2-Chlorophenyl)-3-[4-[((E/Z)-4-ethoxycarbonylbutyloxyimino)(3-pyridyl)methyl]phenylmethyloxymethylcarbonyl]-8,11-dimethyl-2,3,4,5-tetrahydro-8H-pyrido[4′,3′:4,5]thieno[3,2-f][1,2,4]triazolo[4,3-a][1,4]diazepine] | 79.8% |  | 75.6% | no deaths were observed |
| CCOC(=O)CCCCON=C(c1cccnc1)c1cccc(CN2CCc3c(sc4c3C(c3ccccc3Cl)=NC(C)c3nnc(C)n3-4)C2)c1 (mixture of isomers) [Compound 7, 6-(2-Chlorophenyl)-3-[3-[((E/Z)-4-ethoxycarbonylbutyloxyimino)(3-pyridyl)methyl]phenylmethyl]-8,11-dimethyl-2,3,4,5-tetrahydro-8H-pyrido[4′,3′:4,5]thieno[3,2-f][1,2,4]triazolo[4,3-a][1,4]diazepine] | 94.0% |  | 58.2% |  |
| Cc1nnc2n1-c1sc3c(c1C(c1ccccc1Cl)=NC2C)CCN(Cc1cccc(C(=NOCCCCC(=O)O)c2cccnc2)c1)C3 (mixture of isomers) [Compound 8, 6-(2-Chlorophenyl)-3-[3-[((E/Z)-4-carboxydibutyloxyimino)(3-pyridyl)methyl]phenylmethyl]-8,11-dimethyl-2,3,4,5-tetrahydro-8H-pyrido[4′,3′:4,5]thieno[3,2-f][1,2,4]triazolo[4,3-a][1,4]diazepine] | 52.0% |  | 81.7% |  |
| CCOC(=O)CCCCC=C(c1ccc(CN2CCc3c(sc4c3C(c3ccccc3Cl)=NC(C)c3nnc(C)n3-4)C2)cc1)c1cccnc1 (mixture of isomers) [Compound 11, 6-(2-Chlorophenyl)-3-[4-[((E/Z)-5-ethoxycarbonylpentylidene)(3-pyridyl)methyl]phenylmethyl]-8,11-dimethyl-2,3,4,5-tetrahydro-8H-pyrido[4′,3′:4,5]thieno[3,2-f][1,2,4]triazolo[4,3-a][1,4]diazepine] | 94.2% |  | 83.7% |  |
| O=C(O)/C=C/c1ccc(Cn2ccnc2)cc1 [OKY-046, reference compound] | 0% |  | 84.5% |  |
| CCOC(=O)C1=C(c2ccc(-n3c(C)nc4cnccc43)cc2)NC(C)=C(C(=O)Nc2ccccn2)C1c1ccccc1Cl (centres unmarked) [UK-74,505, reference compound] | 89.0% |  | 0% |  |
